Test results: patent US12310967B2, “Compositions and methods of treatment for neurological disorders comprising motor neuron diseases” (Gliapharm SA, priority 2017, dated 2025)
pEC50, pIC50: −log10 of the molar value. Counter-ions that a name gives are not always drawn.

Legend:
[1] = ALS patients; cited from earlier work
primary astrocytes [2] = test: Intracellular glycogen quantification; type: cell-based, mouse; details: 10 μM, 3 h
Description: For glycogen dosage, a protein dosage was first performed in order to assess whether harvested astrocytes from primary cell cultures yielded enough and equivalent amounts of proteins comparing each replicate, and to ensure that the obtained differences in glycogen quantities were due to drug action and not to inner protein quantities.
Astrocytes used for these dosages were previously grown in 6-well plates for 17 days and stimulated with Vehicle (DMSO) or drug of interest (1 μM to 100 μM) for 180 min, at 37° C. 5% CO2/95% air in D5030 complete medium. Medium was removed and replaced with 600 μl of 30 mM Tris HCl, and stored at −20° C.
Proteins were dosed using the micro BCA Protein Assay kit (Thermo Scientific), as described in the manufacturer's instructions. Briefly, thawed cells were sonicated and 5 μl aliquots were placed in a transparent 96-well plate, to which we added 25 μl 30 mM Tris HCl, 70 μl H2O and 100 μl of a BCA mix (made as described in manufacturer's guidelines). After a 120 min-incubation at 37° C., absorbance was measured with Safire 2 spectrophotometer at a wavelength of 562 nm, and protein quantities were determined from a standard curve of Bovine Serum Albumin (BSA).
Glycogen was quantified using a 250 μl-aliquot of the same stimulated, thawed, and sonicated cells. After an incubation period of 30 min at 90° C. and 400 rpm, 28 μl of an acetic acid/sodium acetate (both from Sigma) 0.1M pH 4.6 buffer was added to each aliquot, which was then separated in two. Each split aliquot received whether 5 μl of amyloglucosidase (Roche) or 5 μl H2O, and all cell solutions were incubated for 120 min in a shaking 37° C.-waterbath. After a centrifugation at 16'000G for 5 min, 20 μl of supernatant were placed 96-well plate, to which 150 μl of a mix containing 0.67 mM ATP (Roche), 0.67 mM NADP (Roche), 1.8% hexokinase/glucose-6-phosphate dehydrogenase (Roche) and 0.1M Tris Buffer-HCl/3.3 mM magnesium (Fluka)/pH 8.1 buffer was added. Fluorescence was measured with Safire 2 spectrophotometer (340 nm excitation/440 nm emission). Glycogen concentration was obtained by substracting glucose value of samples with amyloglucosidase to samples without amyloglucosidase, and were expressed relative to the amount of proteins previously determined.
Levels of intracellular glycogen in astrocytes were measured at 3 h after stimulation with 20 Hits from the Prestwick library (10 μM each), as shown in FIG. 2. n=6-10; Ctrl pos. is glutamate (0.5 mM). Statistical analysis consisted in ANOVA followed by Fisher LSD post-hoc test for pair-wise comparisons.
Statistical analysis consisted in ANOVA followed by Fisher LSD post-hoc test for pair-wise comparisons.

primary astrocytes [3] = test: Intracellular glycogen quantification, Example 2; type: cell-based, mouse; details: 10 μM, 3 h
Description: Astrocytes grown on 12-well plates were used for intracellular glycogen quantifications. Cells were stimulated with Vehicle (DMSO), with compounds of the invention (10 μM), or with a positive control for 180 min, at 37° C. 5% CO2/95% air in D5030 medium complemented with
5 mM D-glucose and 44 mM sodium bicarbonate (pH 7.2). […] At the end of the stimulation, medium was removed and replaced with 600 μl of 30 mM Tris HCl, and stored at −20° C.
First, the amount of proteins in each sample was quantified to assess whether harvested astrocytes from primary cell cultures yielded enough and equivalent amounts of proteins on each replicates. Proteins were quantified using the micro BCA Protein Assay kit (Thermo Scientific), according to manufacturer's instructions. Next, intracellular glycogen concentrations were quantified using a 250 μl-aliquot of the same stimulated, thawed, and sonicated cell lysate. After an incubation period of 30 min at 90° C. and 400 rpm, 28 μl of a 0.1M acetic acid/sodium acetate buffer (pH 4.6) was added to each lysate aliquots, which were then separated in two. Each split aliquots received either 5 μl of amyloglucosidase or H2O, and incubated for 120 min at 37° C. After centrifugation at 16'000G for 5 min, 20 μl of supernatant were placed in a 96-well plate, to which 150 μl of a mix containing 0.67 mM ATP, 0.67 mM NADP, 1.8% hexokinase/glucose-6-phosphate dehydrogenase in a 0.1M Tris Buffer-HCl/3.3 mM magnesium (pH 8.1) buffer was added. Fluorescence intensity (340 nm excitation/440 nm emission) was measured using a Safire 2 spectrophotometer. Glucose concentrations were assessed relative to a glucose standard curve, and glycogen concentrations were calculated by subtracting glucose values of samples that had received amyloglucosidase (i.e. that had degraded their glycogen stores) to samples that had not. Intracellular levels of glycogen, which is the main source of glucose storage in the brain, were analyzed in primary astrocytes after treatment with compounds of interest (10 μM, 3 h) (FIG. 5B), and compound GP-0157 (0.1, 1, 10 μM, 3 h) (FIG. 20).

primary astrocytes [4] = test: High throughput screening (HTS) for lactate secretion: acidification of extracellular medium (SNARF5); type: cell-based, mouse; set-up: key to Score / HTS Score (SNARF5) / Score_SNARF: fraction of plate positive-control activity (1 = 100%); details: for Score_SNARF: Appendix I, primary screening confirmation (SNARF5)
Description: Primary cultures of cerebrocortical astrocytes were obtained from 1-2-day-old OF1 mouse pups (Charles River Laboratories). Briefly, cortices were isolated and minced in small pieces under a dissecting microscope. The cells were incubated for 30 min at 37° C. in a solution containing 20 U/ml of papain enzyme (Worthington Biochemical), L-cysteine 1 mM (Sigma), and 10 kU/ml DNase I (Worthington Biochemical) for an enzymatic dissociation. Papain activity was stopped by the addition of fetal calf serum (FCS) to the solution, and a single-cell suspension was then obtained by mechanical dissociation, which consisted in cells trituration in a DMEM (D7777, Sigma-Aldrich) medium (supplemented with 44 mm NaHCO3, and 10 ml/L antibiotic/antimycotic solution) containing 10% FCS. The cells were seeded at an average density of 6×10^4 cells/cm^2 in poly-D-lysine-coated 96, 12 or 6-well culture plates, depending on their use, and incubated at 37° C. in a humidified atmosphere containing 5% CO2/95% air. Culture medium was renewed twice per week. Cells were stimulated and harvested between DIV14 and DIV17, when confluence and cell growth were optimal.
Secretion of lactate in a high-throughput screening (HTS) fashion was measured indirectly through the acidification of extracellular medium. To this end, primary astrocytes grown in 96-well plates for 17 days were stimulated with the compounds as listed herein.
After washing the cells twice with stimulation medium (DMEM (D5030, Sigma), 3 mM NaHCO3 and 5 mM Glucose) at 37° C., cells were stimulated with the compounds at a final concentration of 10 uM (1% DMSO final) in 50 ul per well of stimulation medium supplemented with 10 uM of the extracellular pH sensor SNARF-5F %-(AND-6)-CAR (Life Technologies Corporation). Each compound was tested in two different plates for duplicates.
After 90 min stimulation, fluorescence was read at exc. (excitation) 480 nm/emm. (emission) 580 nm and at exc 480 nm/emm. 630 nm. The ratio of fluorescence between 630 nm and 580 emission values, which represents extracellular pH, was calculated.
In each plate, 8 wells were used for negative controls (DMSO) and 8 wells were used for positive controls (CCCP 2 uM in DMSO). Z prime values were calculated for each of the plates tested and values<0 were discarded.
The average and SD of compounds' values tested in duplicates were calculated, and compound was noted as HIT when the difference between compound's average and negative control's average was greater than three times the sum of compound's SD and negative controls' SD. Only scores greater than 40% were considered as lead Hits for the CDC54K library; for the remaining libraries, all hits were considered. Scores are calculated as the % of activity compared to the positive control in each plate (which is 100%).
Primary screening hits were cherry picked on new plates and confirmed for SNARF5 effect, after having discarded those compounds that are fluorescent (exc. 480 nm/emm. 580 nm or 630 nm) before stimulation. Extracellular medium was next analyzed for extracellular lactate quantification for secondary screening.
Identification of lactate-enhancing drugs with high throughput screening (HTS) experiments on astrocytes primary cultures using extracellular pH dye (SNARF5F 5-(and-6)-carboxylic acid) for 90 min. The procedure is described in Material and Methods (2. Cell culture, 2.1. HTS for lactate secretion and 2.2. Extracellular lactate quantification).
The procedure was performed as follows: • Primary screening: acidification of the extracellular medium • Primary screening confirmation: acidification of the extracellular medium, removal of compounds with fluorescent activity at exc. 480 nm/emm. 580 nm or 630 n. • Secondary screening: dosage of extracellular lactate

primary astrocytes [5] = test: Extracellular lactate quantification; type: cell-based, mouse; details: for Score_LACTATE: Appendix I, secondary screening: extracellular lactate
How it was run: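 Astrocytes were stimulated 90 min at 37 °C in D5030 medium with 5 mM glucose and 44 mM bicarbonate, with compound at 0-100 μM. Extracellular lactate was measured enzymatically with LDH/NAD in glycine-semicarbazide buffer, pH 10, for 1 h at 37 °C. NADH fluorescence (340/450 nm) was converted to lactate using an L-lactate standard curve.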

primary astrocytes [6] = test: MTT viability assay; type: cell-based; details: Mus musculus, Astrocyte, 0-200 uM, 24 h
Description: For cell toxicity determination, astrocytes in 96-well plates were stimulated 24 h (37° C. 5% CO2/95% air) with a gradient ranging from 0.1 to 200 μM of tested compounds. After stimulation, 5 mg/ml thiazol blue tetrazolium bromide (MTT, Sigma-Aldrich) in warm D5030 complete medium was added to each well, and cells were incubated for 4 h at 37° C. (5% CO2). The medium was then removed by aspiration, and the reaction was stopped by the addition of 50 μl DMSO per well.
The amount of reduced MTT (formazan) solubilized in DMSO was then determined spectrophotometrically using absorbance at 570 nm (Safire 2; Tecan).
MTT cellular viability assay was performed on astrocytes exposed to Preswtick Hits (concentrations ranging from 0 uM to 200 uM).
MTT cellular viability assay was performed on astrocytes exposed to CDC54K Hits (concentrations ranging from 0 uM to 200 uM).

Structure (SMILES): CC1=NN(c2ccccc2)C(=O)C1 [Ederavone, edaravone]
- prolongation of patients' lifetime [1]: a few months only

Structure (SMILES): O=c1n(CCCN2CCN(c3cccc(Cl)c3)CC2)nc2ccccn12 [Trazodone hydrochloride]
- Glycogen (statistical significance of glycogen degradation) (primary astrocytes [2]; Prestwick hits): ns

Structure (SMILES): O=S(=O)(Nc1cc(F)cc(F)c1)c1ccc2ccccc2c1 [T5884038]
- mobilization of intracellular glycogen (primary astrocytes [3]): significantly enhance
- Score_SNARF (primary astrocytes [4]): 0.8379
- Score_LACTATE (primary astrocytes [5]): 0.9262

Structure (SMILES): Nc1nc2ccc(OC(F)(F)F)cc2s1 [Riluzole]
- prolongation of patients' lifetime [1]: a few months only

Structure (SMILES): C#C[C@]1(O)CC[C@H]2[C@@H]3[C@H](C)CC4=C(CCC(=O)C4)[C@H]3CC[C@@]21C [Tibolone]
- Score (primary astrocytes [4]; Prestwick library, 10 uM, 90 min, activity relative to positive control CCCP 2 uM): 0.2268
- HTS Score (lactate) (primary astrocytes [4]; Prestwick library, 10 uM, 90 min, relative to positive control CCCP 2 uM): 0.227
- pIC50 (primary astrocytes [6]; Prestwick hits): 4.22
- pEC50 (primary astrocytes [5]; Mus musculus, Astrocyte, 1.5 h, Prestwick hits, 0-100 μM, 90 min, read-out: Lactate EC50): 5.65

Structure (SMILES): COc1ccc(Nc2nc(N3CCOCC3)c3ccccc3n2)cc1 [T0508-5190]
- mobilization of intracellular glycogen (primary astrocytes [3]): significantly enhance
- Score_SNARF (primary astrocytes [4]): 0.4029
- Score_LACTATE (primary astrocytes [5]): 0.2892

Structure (SMILES): CC(=O)c1cccc(NC(=O)C(C)Sc2ncnc3ccccc23)c1 (stereo not drawn) [T0511-9200]
- Glycogen (statistical significance of glycogen degradation) (primary astrocytes [2]; CDC54K hits): ns
- Score_SNARF (primary astrocytes [4]): 0.4866
- pIC50 (primary astrocytes [6]; CDC54K hits): < 3.70
- Score_LACTATE (primary astrocytes [5]): 0.7518

Structure (SMILES): COc1cccc(CNS(=O)(=O)c2ccc3c(c2)CCCN3C(C)=O)c1 [T5967389]
- Score_SNARF (primary astrocytes [4]): 0.2789
- pIC50 (primary astrocytes [6]; CDC54K hits): < 3.70
- Score_LACTATE (primary astrocytes [5]): 0.4517
- Score Lact. (primary astrocytes [5]; Appendix II, CDC54K library): 0.45

Structure (SMILES): COc1ccccc1[N+]1=C2CCCCCN2C(O)(c2ccc(C)cc2)C1 (stereo not drawn) [K404-0834]
- mobilization of intracellular glycogen (primary astrocytes [3]): significantly enhance
- Score_SNARF (primary astrocytes [4]): 1.022
- Score_LACTATE (primary astrocytes [5]): 1.613

Structure (SMILES): Fc1ccc(-c2cc3n(n2)CCCN(Cc2ccncc2)C3)cc1 [T202-1455]
- Glycogen (statistical significance of glycogen degradation) (primary astrocytes [2]; CDC54K hits): ns
- Score_SNARF (primary astrocytes [4]): 0.7839
- pIC50 (primary astrocytes [6]; CDC54K hits): < 3.70
- Score_LACTATE (primary astrocytes [5]): 0.6933

Structure (SMILES): O=C(COc1ccc(Cl)cc1)N1CCN(Cc2ccc3c(c2)OCO3)CC1 [Fipexide hydrochloride]
- Glycogen (statistical significance of glycogen degradation) (primary astrocytes [2]; Prestwick hits): ns

Structure (SMILES): COc1ccccc1NC(=O)Cc1nn(C)c(=O)c2ccccc12 [K851-0113]
- Glycogen (statistical significance of glycogen degradation) (primary astrocytes [2]; CDC54K hits): ns
- Score_SNARF (primary astrocytes [4]): 0.7569
- pIC50 (primary astrocytes [6]; CDC54K hits): < 3.70
- Score_LACTATE (primary astrocytes [5]): 0.9281
